Source: patent publication US20010016605A1, “Use of a phenylurea derivative for controlling crown and root rot in beet” (priority 2000, published 2001)

Tested on: Rhizoctonia solani AG 2-2
Assay: Inhibition of the growth of Rhizoctonia solani AG 2-2 on nutrient medium / protective
Assay type: cell-based
Settings: 0% = untreated control, 100% = complete inhibition of fungal growth, evaluation after 2 to 14 days
Method: Inhibition of the growth of Rhizoctonia solani AG 2-2 (anastomosis group 2-2)/protective
The substances are tested on suitable nutrient media for their activity against Rhizoctonia solani AG 2-2. To this end, the stated amount of active compound is in each case added to and intensively mixed with the stated amount of nutrient medium. The mixture in question is transferred into a culture vessel, inoculated with Rhizoctonia solani AG 2-2 and incubated at a suitable temperature. At certain intervals, the growth of the microorganism is assessed.
A nutrient medium of the following composition is used:
These components are dissolved in 1000 ml of distilled water and autoclaved at 121° C. for 30 minutes. The active compound at the stated concentration is then mixed with the nutrient medium. However, in all cases solvent and nutrient medium are present in the following weight ratio:
These mixtures are poured into Petri dishes having a diameter of 9 cm and a volume of 10 ml. Once the nutrient substrate has cooled and solidified, it is inoculated in the centre of the Petri dish with an inoculation piece having a diameter of 0.5 cm.
Evaluation is carried out after 2 to 14 days—depending on the rate of growth of the microorganism. The effect on the development of the culture is determined by comparing the individual test samples. 0% means an efficacy which corresponds to that of the untreated test variant. In contrast, an efficacy of 100% means complete inhibition of fungal growth.

[1] = active compound application rate 0.1 ppm in nutrient medium
[2] = active compound application rate 1 ppm in nutrient medium
[3] = active compound application rate 10 ppm in nutrient medium
[4] = active compound application rate 100 ppm in nutrient medium

Compound | Efficacy in % [1] | Efficacy in % [2] | Efficacy in % [3] | Efficacy in % [4]
O=C(Nc1ccccc1)N(Cc1ccc(Cl)cc1)C1CCCC1 [pencycuron, N-4-chloro-benzyl-N-cyclopentyl-N′-phenylurea] | 70% | 98% | 100% | 100%
CO/C=C(/C(=O)OC)c1ccccc1Oc1cc(Oc2ccccc2C#N)ncn1 [azoxystrobin] | 45% | 48% | 59% | 64%
Cc1cc(O)no1 [hymexazol] | 7% | 5% | 8% | 35%
